Laboratory results: PMC8819633 (Journal of medicinal chemistry, 2021)

What was measured:
T-AKT and P-AKT (S473) = assay: Western blot of AKT degradation in PC3 cells; type: cell-based, human; settings: for T-AKT and P-AKT degradation (western blot): PC3 cells, 1 μM, 24 h
[1] = tested on: P-PRAS40 (T246) and P-S6 (S240/244); assay: Western blot of downstream signaling inhibition in PC3 cells; type: cell-based, human; settings: 1 μM, 24 h, vs GSK690693
[2] = tested on: P-PRAS40 (T246) and P-S6 (S240/244); assay: Western blot of downstream signaling inhibition in BT474 cells; type: cell-based, human; settings: for inhibition of downstream signaling, P-PRAS40 and P-S6: compared with GDC-0068 (1 μM)
[3] = tested on: total AKT (T-AKT) and phosphorylated AKT (P-AKT (S473)); assay: Western blot of AKT degradation in BT474 cells; type: cell-based, human; settings: for T-AKT and P-AKT protein degradation (western blot): 24 h, 1, 5 and 10 μM (12-13: 1, 3 and 10 μM); for hook effect in AKT degradation: higher concentrations (up to 10 μM); for time course of T-AKT and P-AKT degradation: indicated times; for P-AKT (S473) protein level (western blot): GDC-0068 at 1 μM; for T-AKT protein level (western blot): controls at 1 μM
MDA-MB-468 cells [4] = assay: Apoptosis assay; type: cell-based, human; settings: MDA-MB-468 cells (Figure S5)
T-AKT and P-AKT = assay: Competition; type: cell-based, human; settings: BT474, then degrader 22 h
MDA-MB-468 cells [5] = assay: Cell proliferation assay; type: cell-based, human; settings: 5 days
[6] = type: in vivo; settings: mice, single IP injection, 50 mg/kg
PC3 cells = assay: Cell proliferation assay; type: cell-based, human; settings: 5 days
[7] = male Swiss albino mice, single IP injection, 50 mg/kg

Q: For `CCn1c(-c2nonc2N)nc2c(C#CC(C)(C)O)ncc(OCCCNCCCC(=O)NCCCCCCCCCCC(=O)N[C@H](C(=O)N3C[C@H](O)C[C@H]3C(=O)NCc3ccc(-c4scnc4C)cc3)C(C)(C)C)c21` [Compound 48, (2S,4R)-1-((S)-2-(11-(4-((3-((2-(4-Amino-1,2,5-oxadiazol-3-yl)-1-ethyl-4-(3-hydroxy-3-methylbut-1-yn-1-yl)-1H-imidazo[4,5-c]-pyridin-7-yl)oxy)propyl)amino)butanamido)undecanamido)-3,3-dimethylbutanoyl)-4-hydroxy-N-(4-(4-methylthiazol-5-yl)benzyl)-pyrrolidine-2-carboxamide], which “T-AKT and P-AKT degradation (western blot)” value (T-AKT and P-AKT (S473)) is on record?
A: Its value is “the most effective in degrading T-AKT and P-AKT”.

Q: What about the “inhibition of P-PRAS40” value [1] of the same compound?
A: Its value is “less effective than GSK690693 in inhibiting P-PRAS40”.

Q: Which results are given for `Cc1ncsc1-c1ccc(CNC(=O)[C@@H]2C[C@@H](O)CN2C(=O)[C@@H](NC(=O)CCCCCCCCCCNC(=O)CCNC[C@@H](C(=O)N2CCN(c3ncnc4c3[C@H](C)C[C@H]4O)CC2)c2ccc(Cl)cc2)C(C)(C)C)cc1` [Compound 11, (2S,4R)-1-((S)-2-(11-(3-(((S)-2-(4-Chlorophenyl)-3-(4-((5R,7R)-7-hydroxy-5-methyl-6,7-dihydro-5H-cyclopenta[d]pyrimidin-4-yl)-piperazin-1-yl)-3-oxopropyl)amino)propanamido)-undecanamido)-3,3-dimethylbutanoyl)-4-hydroxy-N-(4-(4-methyl-thiazol-5-yl)benzyl)pyrrolidine-2-carboxamide]?
A: inhibition of downstream signaling, P-PRAS40 and P-S6 ([2]; 24 h): less effective than the parent inhibitor GDC-0068; T-AKT and P-AKT protein degradation (western blot) [3]: near-complete degradation of T-AKT and P-AKT at 1 μM; hook effect in AKT degradation ([3]; 24 h): at 5 and 10 μM, a ″hook effect″ was observed

Q: With `Cc1ncsc1-c1ccc([C@H](C)NC(=O)[C@@H]2C[C@@H](O)CN2C(=O)[C@@H](NC(=O)CCCCCCCCCCNC(=O)CCNC[C@@H](C(=O)N2CCN(c3ncnc4c3[C@H](C)C[C@H]4O)CC2)c2ccc(Cl)cc2)C(C)(C)C)cc1` [Compound 12, (2S,4R)-1-((S)-2-(11-(3-(((S)-2-(4-Chlorophenyl)-3-(4-((5R,7R)-7-hydroxy-5-methyl-6,7-dihydro-5H-cyclopenta[d]pyrimidin-4-yl)-piperazin-1-yl)-3-oxopropyl)amino)propanamido)-undecanamido)-3,3-dimethylbutanoyl)-4-hydroxy-N-((S)-1-(4-(4-methylthiazol-5-yl)phenyl)ethyl)pyrrolidine-2-carboxamide] as the compound, how does the “inhibition of downstream signaling, P-PRAS40 and P-S6” value (from here on “inhibition … P-PRAS40 and P-S6”) ([2]; 24 h) read?
A: Its value is “more profound inhibition of P-PRAS40 and P-S6 than 11”.

Q: What about the “T-AKT and P-AKT protein degradation (western blot)” value (“T-AKT and P-AKT protein degradation” for short) [3] of the same compound?
A: Its value is “remarkable effects on degrading T-AKT and P-AKT”.

Q: Which results are given for `Cc1ncsc1-c1ccc(CNC(=O)[C@@H]2C[C@@H](O)CN2C(=O)[C@@H](NC(=O)COCCNC(=O)CCNC[C@@H](C(=O)N2CCN(c3ncnc4c3[C@H](C)C[C@H]4O)CC2)c2ccc(Cl)cc2)C(C)(C)C)cc1` [Compound 3, (2S,4R)-1-((2S,15S)-2-(tert-Butyl)-15-(4-chlorophenyl)-16-(4-((5R,7R)-7-hydroxy-5-methyl-6,7-dihydro-5H-cyclopenta[d]-pyrimidin-4-yl)piperazin-1-yl)-4,10,16-trioxo-6-oxa-3,9,13-triaza-hexadecanoyl)-4-hydroxy-N-(4-(4-methylthiazol-5-yl)benzyl)-pyrrolidine-2-carboxamide]?
A: inhibition of downstream signaling, P-PRAS40 and P-S6 ([2]; 24 h): less than GDC-0068; T-AKT and P-AKT protein degradation (western blot) [3]: induced significant T-AKT and P-AKT protein degradation at concentrations of 5 and 10 μM

Q: Which “inhibition … P-PRAS40 and P-S6” value ([2]; 24 h) does the source give for “3-(((S)-2-(4-Chlorophenyl)-3-(4-((5R,7R)-7-hydroxy-5-methyl-6,7-dihydro-5H-cyclopenta[d]pyrimidin-4-yl)piperazin-1-yl)-3-oxopropyl)amino)-N-(9-(2-(2,6-dioxopiperidin-3-yl)-1,3-dioxoisoindolin-4-yl)nonyl)propenamide [Compound 27]” here?
A: The value was “maintained the excellent AKT degradation and downstream signaling inhibition effects”.

Q: And the “T-AKT and P-AKT degradation” value ([3]; 1 μM, 24 h)?
A: The value was over 95%.

Q: What about the “T-AKT and P-AKT protein degradation” value [3] of the same compound?
A: Its value is “maintained the excellent AKT degradation”.

Q: Which “T-AKT and P-AKT degradation (western blot)” value (T-AKT and P-AKT (S473)) does the source give for `CCn1c(-c2nonc2N)nc2c(C#CC(C)(C)O)ncc(OCCCNCCCC(=O)NCCCCCCCCNc3cccc4c3C(=O)N(C3CCC(=O)NC3=O)C4=O)c21` (stereo not shown) [Compound 60, 4-((3-((2-(4-Amino-1,2,5-oxadiazol-3-yl)-1-ethyl-4-(3-hydroxy-3-methylbut-1-yn-1-yl)-1H-imidazo[4,5-c]pyridin-7-yl)oxy)propyl)-amino)-N-(8-((2-(2,6-dioxopiperidin-3-yl)-1,3-dioxoisoindolin-4-yl)-amino)octyl)butanamide] here?
A: The value was “the most effective in degrading T-AKT and P-AKT”.

Q: What about the “inhibition of P-PRAS40” value [1] of the same compound?
A: Its value is “less effective than GSK690693 in inhibiting P-PRAS40”.

Q: For “3-(((S)-2-(4-Chlorophenyl)-3-(4-((5R,7R)-7-hydroxy-5-methyl-6,7-dihydro-5H-cyclopenta[d]pyrimidin-4-yl)piperazin-1-yl)-3-oxopropyl)amino)-N-(5-((2-(2,6-dioxopiperidin-3-yl)-1,3-dioxoisoindolin-4-yl)amino)pentyl)propenamide [Compound 22]”, which “T-AKT and P-AKT protein degradation” value [3] is on record?
A: Its value is “marginally effective in inducing AKT degradation at 1–10 μM”.

Q: For `C[C@@H]1C[C@@H](O)c2ncnc(N3CCN(C(=O)[C@H](CNCCC(=O)NCCCCCCCCNc4cccc5c4C(=O)N(C4CCC(=O)NC4=O)C5=O)c4ccc(Cl)cc4)CC3)c21` (stereo partly shown) [Compound 25], which “AKT degradation, concentration-response” value (T-AKT and P-AKT (S473)) is on record?
A: The value was “effectively induced AKT degradation in a concentration-dependent manner”.

Q: And the “kinetics of downstream signaling inhibition” value ([2]; 1 μM, vs GDC-0068)?
A: Its value is “not as rapid as that induced by GDC-0068”.

Q: What about the “inhibition … P-PRAS40 and P-S6” value ([2]; 24 h) of the same compound?
A: The value was “most effective in inhibiting the downstream signaling”.

Q: What about the apoptosis induced (MDA-MB-468 cells [4]) of the same compound?
A: Its apoptosis induced is at most 3%.

Q: What about the “effect of GDC-0068 pretreatment on degrader-induced AKT degradation” value (T-AKT and P-AKT; 2 h pretreatment with GDC-0068 (1 μM)) of the same compound?
A: The value was “rescued 25-induced AKT degradation”.

Q: What about the “effect of MG132 pretreatment on degrader-induced AKT degradation” value (T-AKT and P-AKT; 2 h pretreatment with MG132 (10 μM)) of the same compound?
A: Its value is “rescued 25-induced AKT degradation”.

Q: And the “effect of MLN4924 pretreatment on degrader-induced AKT degradation” value (T-AKT and P-AKT; 2 h pretreatment with MLN4924 (1 μM))?
A: The value was “rescued 25-induced AKT degradation”.

Q: And the growth inhibition (MDA-MB-468 cells [5])?
A: The growth inhibition was “comparable potencies to GDC-0068 and INY-03–041”.

Q: What about the tolerability [6] of the same compound?
A: Its tolerability is “well tolerated”.

Q: What about the growth inhibition (PC3 cells) of the same compound?
A: Its growth inhibition is “comparable potencies to GDC-0068 and INY-03–041”.

Q: What about the “time of Cmax” value [7] of the same compound?
A: Its value is 2 h.

Q: What about the “duration of T-AKT and P-AKT degradation” value ([3]; 1 μM) of the same compound?
A: The value was “at least 24 h”.

Q: What about the “T-AKT and P-AKT degradation” value ([3]; 1 μM, 24 h) of the same compound?
A: Its value is over 95%.

Q: What about the “time course of T-AKT and P-AKT degradation” value ([3]; 1 μM) of the same compound?
A: The value was “Significant P-AKT and T-AKT degradation occurred as early as 4 and 8 h, respectively”.

Q: And the “T-AKT and P-AKT protein degradation” value [3]?
A: Its value is “highly effective in reducing T-AKT and P-AKT protein levels”.

Q: What about the “hook effect in AKT degradation” value ([3]; 24 h) of the same compound?
A: Its value is “without a ″hook effect″”.

Q: What about the “extent of T-AKT degradation in concentration-response” value ([3]; 24 h, indicated concentrations) of the same compound?
A: The value was “complete degradation of T-AKT at 300 nM”.

Q: What about the “hook effect in concentration-response” value ([3]; concentrations up to 10 μM) of the same compound?
A: The value was “No ″hook effect″ was observed”.

Q: Which results are given for “3-(((S)-2-(4-Chlorophenyl)-3-(4-((5R,7R)-7-hydroxy-5-methyl-6,7-dihydro-5H-cyclopenta[d]pyrimidin-4-yl)piperazin-1-yl)-3-oxopropyl)amino)-N-(8-((2-(2,6-dioxopiperidin-3-yl)-1,3-dioxoisoindolin-4-yl)oxy)octyl)propenamide [Compound 29]”?
A: inhibition of downstream signaling, P-PRAS40 and P-S6 ([2]; 24 h): maintained the excellent AKT degradation and downstream signaling inhibition effects; T-AKT and P-AKT degradation ([3]; 1 μM, 24 h): > 95%; T-AKT and P-AKT protein degradation (western blot) [3]: maintained the excellent AKT degradation

Q: With `CC(C)NC[C@@H](C(=O)N1CCN(c2ncnc3c2[C@H](C)C[C@H]3O)CC1)c1ccc(Cl)cc1` [GDC-0068, reference compound] as the compound, how does the “inhibition … P-PRAS40 and P-S6” value ([2]; 24 h) read?
A: Its value is “effectively inhibited downstream signaling”.

Q: And the “time course of T-AKT and P-AKT degradation” value ([3]; 1 μM)?
A: The value was “no effect on the T-AKT protein level and increased the P-AKT protein level”.

Q: And the “P-AKT (S473) protein level (western blot)” value ([3]; 24 h)?
A: The value was “AKT hyperphosphorylation”.

Q: What about the “T-AKT protein level (western blot)” value ([3]; 24 h) of the same compound?
A: Its value is “no detectable effect on the T-AKT protein level”.

Q: With `C[C@@H]1C[C@@H](O)c2ncnc(N3CCN(C(=O)[C@H](CNCCNC(=O)CCCCCCCCNc4cccc5c4C(=O)N(C4CCC(=O)NC4=O)C5=O)c4ccc(Cl)cc4)CC3)c21` (stereo partly drawn) [Compound 26, N-(2-(((S)-2-(4-chlorophenyl)-3-(4-((5R,7R)-7-hydroxy-5-methyl-6,7-dihydro-5H-cyclopenta[d]pyrimidin-4-yl)piperazin-1-yl)-3-oxopropyl)amino)ethyl)-9-((2-(2,6-dioxopiperidin-3-yl)-1,3-dioxoisoindolin-4-yl)amino)nonanamide] as the compound, how does the “inhibition of P-PRAS40” value ([2]; 1 μM, 24 h) read?
A: Its value is “as effectively as GDC-0068”.

Q: What about the “P-AKT (S473) protein level (western blot)” value ([3]; 24 h) of the same compound?
A: Its value is “did not reduce the P-AKT level”.

Q: What about the “T-AKT protein level (western blot)” value ([3]; 24 h) of the same compound?
A: Its value is “partially degraded T-AKT”.
